pIC50: −log10 of the molar value. Like-named read-outs stand apart in the source and are kept apart here.

The values that follow come from patent publication US11485728B2, “Small molecules for the treatment of autoimmune diseases and cancer” (Athos Therapeutics, Inc., priority 2020, dated 2022).

For series [1], the system named is CaCo-2 intestinal epithelial cells. Nature of the series: Transepithelial resistance (TEER) of CaCo-2 cells exposed to TNFα and IFNγ. Particulars: for epithelial barrier resistance: TNFα 10 ng/ml, IFNγ 100 ng/ml, compounds 1 μM, 48 hrs of treatment; for transepithelial resistance after combined TNFα and IFNγ exposure: TNFα 20 ng/ml, IFNγ 200 ng/ml, 24 hrs of treatment. Format: cell-based. Here is the method:
The intestinal epithelial barrier plays a central role in the pathophysiology of multiple chronic inflammatory and autoimmune diseases. Intestinal epithelial cells provide a physical barrier that interacts with immune cells and protects internal cavities from mucosal bacterial and antigen intrusion. Intestinal inflammation during IBD is associated with disruption of this barrier and cytokines like TNFα play important roles.
At confluence TEER is measured and TNFα along with compounds are added as described above. Compound-induced TEER is determined after correction with measurement prior to treatment.

Series [2] in a line: pH solubility. Format: physicochemical. To be noted: for solubility at 24 h: aqueous solution, thermodynamic from solid, read-out: Solubility Concentration; for solubility higher than the solubility of compound 201: pH 7.4. The procedure:
Saturated solutions of selected compounds were prepared at pH 1, 4, 6.5, and 7.4. The pH conditions selected are within the extremes of the normal physiological pH of the human gastrointestinal tract. Solubility testing of drug under different pH conditions was carried out by adding an excess amount of drug to each pH condition initiating with 1 mg/mL and then confirmed saturation by visual observation of undissolved material. The saturated solutions are continuously shaking at 6,000 rpm for 24 hours at room temperature. The saturated solutions were filtered through Millipore 0.22 um PVDF hydrophilic filters and subjected to HPLC to evaluate the solubility concentration of the test compound. Filtered saturated solutions were diluted with acetonitrile:water (50:50) within the calibration standard curve. A calibration curve of test compound contained […] standards at concentrations 0.25, 0.5, 1.0, 5.0, 10, 25, 50 and 100 μg/mL were prepared in acetonitrile:water (50:50).
Compounds were measured in filtered saturated solution using an Agilent 1260 Infinity II Lab LC Series HPLC (1260 quat pump, 1260 vial autosampler, ICC column oven, 1260 DAD WR detector). The chromatographic separation was achieved by Phenomenex Synergi Polar RP column (150×4.6 mm, 4 μm, 80 Å). The mobile phase was gradient (A: water with 0.1% trifluoroacetic acid, B: acetonitrile with 0.1% trifluoroacetic acid; A/B (99:1) from 0 minute; to A/B (1:99) from 0 to 10 minutes; A/B (1:99) from 10 to 12 minutes; to A/B (99:1) from 12 to 12.1 minutes; A/B (99:1) from 12.1 to 13 minutes) pumped at a flow rate of 1 mL/min. The detection of the eluent was monitored at 254 nm. The column oven was set at 35° C. Injection volume was 10 μL, unless otherwise specified. Data acquisition and peak integrations were obtained by OpenLAB CDS Version 2.4 (Agilent) operating with Windows (Microsoft).
Solubility is the ability of a drug to dissolve in an aqueous solution under different pH conditions. It is defined as the amount of substance that passes into solution to achieve a saturated solution at a constant temperature and pressure. The purpose of this study was to determine the solubility of selected compounds under different pH conditions and determine whether an oral solution is feasible or a suspension would be better to support the drug formulation process for pre-clinical studies. The pH conditions selected were within the extremes of the normal physiological pH of the human gastrointestinal tract, such as pH 1, pH 4, pH 6.5, and pH 7.4.

Series [3] concerns gut microbiome. The experiment in a line: Microbiome (shotgun metagenomic sequencing) of DSS-induced colitis mice. Format: in vivo. To be noted: for gut microbiome composition (in words): induced colitis conditions.
Series [4] concerns IL17. Nature of the series: IL17 protein levels in human CD4 T cells (ELISA). Format: cell-based. The procedure: Naïve human CD4 T cells were cultured in DMEM supplemented with 10% heat-inactivated FBS, 2 mM glutamine, 100 U/ml penicillin, 100 μg/ml streptomycin and 25 mM Hepes. Human CD4 T cells were treated with anti-CD3 and anti-CD28 (100 ng/ml) together with small molecule compounds (500 nM) for 5 days. FoxP3 and CD4 positive cells were stained and imaged in a BD LSRII flow cytometer. The gated area represents the percentage CD4^highFoxP3^high immune cell population. Furthermore, the same small molecule compounds were evaluated for their effects on IL17 protein levels in human CD4 T cells by using an ELISA assay (R&D systems, cat no. D1700).
For orientation: In an ELISA, binding on a coated surface is turned into a signal by an enzyme label.

Series [5] concerns J82. The experiment in a line: J82 bladder cancer cell viability (Real-Time-Glo). Format: cell-based. To be noted: Homo sapiens, 72 hr, read-out: IC50, Cell line: J82. The procedure: To determine the plating density for cell viability assays, for each cell line, cells were counted and diluted to final densities of 2.5, 5, 10 and 20 thousand per 100 μl of their respective growth media per well in 96 well plates. A Promega Real-Time-Glo cell viability kit was used to determine the optimal concentration for cell plating so that each cell line would be within the linear part of its growth curve after 72 hrs in culture. For the determination of test compound IC50s different cancer cell lines were plated in 96 well plates in the pre-determined optimal density for each cell line. Test compounds were then added at different concentrations for the creation of six-point curve and cell density was determined using the Promega Real-Time-Glo cell viability kit after 24, 48, and 72 hrs in culture. Test compound 72 hr IC50s were calculated using the AAT Bioquest IC50 calculator.

[6] abbreviates: DSS colitis mice, 25 mg/kg PO daily, p<0.05.
[7] abbreviates: CaCo-2, TNFα along with compounds.

As to `COc1cc2c(NC3CCS(=O)(=O)CC3)nc(N3CCC(F)(F)CC3)nc2cc1OCCCN1CCCC1` [Compound 1, 4-((2-(4,4-difluoropiperidin-1-yl)-6-methoxy-7-(3-(pyrrolidin-1-yl)propoxy)quinazolin-4-yl)amino)tetrahydro-2H-thiopyran 1,1-dioxide], in series [1], the epithelial barrier resistance entry is “recovered epithelial barrier resistance levels back to those of untreated cells”; the “transepithelial resistance after combined TNFα and IFNγ exposure” value is “ameliorated the disruptive effects”. The TEER entry in series [1] (vs control group) is given as “+”. In series [2] (pH 4, aqueous buffer), the solubility at 24 h was found to be 11600 µg/mL. Also, the solubility at 24 h in series [2] (pH 6.5, aqueous buffer) stood at 6050 µg/mL. In addition, the solubility at 24 h in series [2] (pH 7.4, aqueous buffer) worked out at 424 µg/mL. Further, the “solubility higher than the solubility of compound 201” value in series [2] was determined as 40 fold. Further, in series [3] (setting [6]), the Bacteroidetes phylum abundance entry is listed as “increase”, the Firmicutes phylum abundance entry is “significant decrease” and the Verrucomicrobia phylum abundance entry was “increase”. In addition, the “gut microbiome composition (in words)” value in series [3] is “significantly altered the gut microbiome composition and shifted it towards eubiosis”.

In the case of `COc1cc2c(NC3CCOCC3)nc(N3CCC(F)(F)CC3)nc2cc1OCCCN1CCCC1` [Compound 2, 2-(4,4-difluoropiperidin-1-yl)-6-methoxy-7-(3-(pyrrolidin-1-yl)propoxy)-N-(tetrahydro-2H-pyran-4-yl)quinazolin-4-amine], in series [1], the epithelial barrier resistance entry is given as “recovered epithelial barrier resistance levels back to those of untreated cells”; the “transepithelial resistance after combined TNFα and IFNγ exposure” value is given as “ameliorated the disruptive effects”. For the same compound, the TEER entry in series [1] (vs control group) was “+”. Besides, the IL17 protein levels result in series [4] is recorded as “do not have an effect”. For the same compound, the solubility at 24 h in series [2] (pH 6.5, aqueous buffer) was found to be 27500 µg/mL. The solubility at 24 h in series [2] (pH 7.4, aqueous buffer) turned out to be 449 µg/mL. The “solubility higher than the solubility of compound 201” value in series [2] turned out to be 40 fold. Moreover, in series [3] (setting [6]), the Bacteroidetes phylum abundance result was “increase” and the Proteobacteria phylum abundance result is “increase”. Moreover, the “gut microbiome composition (in words)” value in series [3] is “significantly altered the gut microbiome composition and shifted it towards eubiosis”.

The pIC50 is the IC50 on a negative log10 scale, so that one unit is a factor of ten. Consider `COc1cc2c(Nc3ccncc3)nc(N3CCC(F)(F)CC3)nc2cc1OCCCN1CCCC1` [Compound 7, 2-(4,4-difluoropiperidin-1-yl)-6-methoxy-N-(pyridin-4-yl)-7-(3-(pyrrolidin-1-yl)propoxy)quinazolin-4-amine], for which, in series [1] (setting [7]), the TEER entry is listed as “−”. For the same compound, the epithelial barrier resistance result in series [1] was “recovered epithelial barrier resistance levels back to those of untreated cells”. The negative logarithm of the IC50 (pIC50) in series [5] was 5.30 to 6.00.

As for `COc1cc2c(NC3COC3)nc(N3CCC(F)(F)CC3)nc2cc1OCCCN1CCCC1` [Compound 11, 2-(4,4-difluoropiperidin-1-yl)-6-methoxy-N-(oxetan-3-yl)-7-(3-(pyrrolidin-1-yl)propoxy)quinazolin-4-amine], the solubility at 24 h in series [2] (pH 4, aqueous buffer) was 4450 µg/mL; in series [2] (pH 6.5, aqueous buffer), 3180 µg/mL; in series [2] (pH 7.4, aqueous buffer), 245 µg/mL.

Consider `COc1cc2c(NC3CCOCC3)nc(N3CCCC3)nc2cc1OCCCN1CCCC1` [Compound 164, 6-methoxy-2-(pyrrolidin-1-yl)-7-(3-(pyrrolidin-1-yl)propoxy)-N-(tetrahydro-2H-pyran-4-yl)quinazolin-4-amine], for which the TEER entry in series [1] (setting [7]) is “++”.

For `COc1cc2c(NC3CCN(C(C)C)CC3)nc(N3CCC(F)(F)CC3)nc2cc1OCCCN1CCCC1` [Compound 400, 2-(4,4-difluoropiperidin-1-yl)-N-(1-isopropylpiperidin-4-yl)-6-methoxy-7-(3-(pyrrolidin-1-yl)propoxy)quinazolin-4-amine, reference compound], in series [1], the epithelial barrier resistance entry is recorded as “increased intestinal permeability”. For the same compound, the TEER result in series [1] (vs control group) was “−”. Also, in series [4], the IL17 protein levels result is “significantly suppresses”. Besides, the negative-log IC50 (pIC50) in series [5] was 5.00 to 5.30. In addition, the solubility at 24 h in series [2] (pH 1, simulated gastric fluid) was 22800 µg/mL; in series [2] (pH 4, aqueous buffer) it was 13200 µg/mL; in series [2] (pH 6.5, aqueous buffer), 7510 µg/mL; in series [2] (pH 7.4, aqueous buffer) it was 11 µg/mL.
